Assay type in all cases: in vivo, mice
Experiment [1] relates to CTG-0157 primary NSCLC human TumorGraft. Briefly: NSCLC TumorGraft model CTG-0157. As to conditions: CTG-0157, 14 days, 10 mg/kg iv/q4dx3. As to the method:
(§1) Methods (for the experiments shown in FIGS. 10 and 11) • Female immunocompromised nu/nu mice (Harlan) between 6-9 weeks of age were housed on irradiated papertwist-enriched ⅛″ corncob bedding (Sheperd) in individual HEPA ventilated cages (Innocage® IVC, Innovive USA) on a 12-hour light-dark cycle at 68-74° F. (20-23° C.) and 30-70% humidity. Animals were fed water ad libitum (reverse osmosis, 2 ppm Cl2) and an irradiated Test rodent diet (Teklad 2919) consisting of 19% protein, 9% fat, and 4% fiber. • Tumor Models: Champions TumorGraft models of NSCLC are owned by Champions Oncology. In this study, animals were implanted unilaterally on the right flank with tumor fragments harvested from host animals. […] Erlotinib (manufacturer: OSI Pharmaceuticals; National Drug Code: 50242-062-01; Lot #: US0002) was formulated using 100% PEG-400 as the vehicle according to manufacturer's specifications.
(§2) Efficacy measurements: Beginning Day 0, tumor dimensions were measured twice weekly by digital caliper (Fowler Ultra-Cal IV) and data including individual and mean estimated tumor volumes (Mean TV±SEM) were recorded for each group; tumor volume was calculated using the formula TV=width^2×length×0.52. At study completion, percent tumor growth inhibition (% TGI) values were calculated and reported for each treatment group (T) versus control (C) using initial (i) and final (f) tumor measurements by the formula: % TGI=1−Tf−Ti/Cf−C; single agent or combination therapies resulting in a TGI>50 at study completion are considered active in the tested model at the evaluated treatment regimen according to NCI guidelines. […] If the PR persisted until study completion, percent tumor regression (% TR) was determined using the formula: % TR=1−Tf/Ti×100; a mean value was calculated if multiple PR mice occurred in one group. […] Statistical differences in tumor volume were determined using a two-tailed One-Way Analysis of Variance (ANOVA) followed by the Dunett's multiple comparisons test comparing treated groups with control and combinations with standard agent alone when possible. […]

Experiment [2] deals with CTG-0165 erlotinib-insensitive primary NSCLC human TumorGraft. Description: NSCLC TumorGraft model CTG-0165. As to conditions: CTG-0165, 37 days, 10 mg/kg iv/q4dx3. Here is the method: as §1
(§3) Efficacy measurements: Beginning Day 0, tumor dimensions were measured twice weekly by digital caliper (Fowler Ultra-Cal IV) and data including individual and mean estimated tumor volumes (Mean TV±SEM) were recorded for each group; tumor volume was calculated using the formula TV=width^2×length×0.52. At study completion, percent tumor growth inhibition (% TGI) values were calculated and reported for each treatment group (T) versus control (C) using initial (i) and final (f) tumor measurements by the formula: % TGI=1−Tf−Ti/Cf−C; single agent or combination therapies resulting in a TGI>50 at study completion are considered active in the tested model at the evaluated treatment regimen according to NCI guidelines. Individual mice reporting a tumor volume ≤50% of the Day 0 measurement for two consecutive measurements over a seven day period were considered partial responders (PR). If the PR persisted until study completion, percent tumor regression (% TR) was determined using the formula: % TR=1−Tf/Ti×100; a mean value was calculated if multiple PR mice occurred in one group. Individual mice lacking palpable tumors (<4×4 mm^2 for two consecutive measurements over a seven day period) were classified as complete responders (CR); a CR that persisted until study completion was considered a tumor-free survivor (TFS). TFS animals are excluded from efficacy calculations. Statistical differences in tumor volume were determined using a two-tailed One-Way Analysis of Variance (ANOVA) followed by the Dunett's multiple comparisons test comparing treated groups with control and combinations with standard agent alone when possible. All data collected in this study was managed electronically and stored on a redundant server system.

Experiment [3] relates to CTG-0159 primary NSCLC human TumorGraft. Briefly: NSCLC TumorGraft model CTG-0159. As to conditions: CTG-0159, 14 days, 10 mg/kg iv/q4dx3. Here is the method: as §1, §2
The subject of experiment [4] is CTG-0170 erlotinib-insensitive primary NSCLC human TumorGraft. Briefly: NSCLC TumorGraft model CTG-0170. The note with it: CTG-0170, 10 days, 10 mg/kg iv/q4dx3. As to the method: as §1, §3
The subject of experiment [5] is CTG-0192 erlotinib-sensitive NSCLC TumorGraft. Description: NSCLC TumorGraft model CTG-0192. Here is the method: as §1, §3

Marks after values point to notes of the source that are not given here.

Turning to `CC(=O)O[C@H]1C(=O)[C@@]2(C)[C@H]([C@H](OC(=O)c3ccccc3)[C@]3(O)C[C@H](OC(=O)[C@H](O)[C@@H](NC(=O)c4ccccc4)c4ccccc4)C(C)=C1C3(C)C)[C@]1(OC(C)=O)CO[C@@H]1C[C@@H]2O` [Paclitaxel, reference compound], the “% Tumor Growth Inhibition” value in experiment [1] came out at 41%; in experiment [2], 56%*; in experiment [3], 25%*; in experiment [4] it was 77%*; in experiment [5] (CTG-0192, 32 days, 10 mg/kg iv/q4dx3), 105%*.

`C#Cc1cccc(Nc2ncnc3cc(OCCOC)c(OCCOC)cc23)c1` [erlotinib, reference compound]: in experiment [5] (CTG-0192, 35 mg/kg, po, qd×34), the “day of acquired resistance” value is about 29 days, the “tumor regrowth after discontinuation of dosing (day 34)” value is listed as “rate of tumor regrowth was similar to control/vehicle” and the “tumor response during dosing” value is on record as “initial sensitivity followed by acquired erlotinib-resistance”.

Source of the values: patent US10028956B2, “Methods of treating various cancers using an AXL/cMET inhibitor in combination with other agents” (Ignyta, Inc., priority 2013, dated 2018).
